In PubChem BioAssay (NCI):
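Cultured in 96-well plates, cells were exposed to test compound for 48 hours across five concentrations. Definition used: TGI = concentration required for complete inhibition of growth.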

Key:
Assay in all cases: growth of human tumour cells (NCI), 48 h
[1] = system: SF-295 CNS
[2] = system: UO-31 renal
[3] = system: OVCAR-3 ovarian
[4] = system: HS 578T breast
[5] = system: UACC-62 melanoma
[6] = system: HT29 colon
[7] = system: HCT-15 colon
[8] = system: SK-OV-3 ovarian
[9] = system: CCRF-CEM leukemia
[10] = system: OVCAR-5 ovarian
[11] = system: CAKI-1 renal
[12] = system: MOLT-4 leukemia
[13] = system: SF-268 CNS
[14] = system: SR leukemia
[15] = system: SNB-19 CNS
[16] = system: MDA-N
[17] = system: HOP-62 NSCLC
[18] = system: SN12C renal
[19] = system: SF-539 CNS
[20] = system: M14 melanoma
[21] = system: LOX IMVI melanoma
[22] = system: BT-549 breast
[23] = system: SK-MEL-2 melanoma
[24] = system: IGROV1 ovarian
[25] = system: NCI-H23 lung
[26] = system: 786-0 renal
[27] = system: MALME-3M melanoma
[28] = system: A549 NSCLC
[29] = system: KM12 colon
[30] = system: SK-MEL-5 melanoma
[31] = system: NCI-H460 lung
[32] = system: HCC-2998 colon
[33] = system: NCI/ADR-RES ovarian
[34] = system: NCI-H522 lung
[35] = system: SK-MEL-28 melanoma
[36] = system: OVCAR-8 ovarian
[37] = system: TK-10 renal
[38] = system: A498 renal
[39] = system: U251 CNS
[40] = system: K-562 leukemia
[41] = system: UACC-257 melanoma
[42] = system: EKVX NSCLC
[43] = system: COLO 205 colon
[44] = system: MDA-MB-231 breast
[45] = system: MCF7 breast
[46] = system: ACHN renal
[47] = system: RXF 393 renal
[48] = system: SNB-75 CNS
[49] = system: HCT-116 colon
[50] = system: NCI-H226 lung
[51] = system: HOP-92 NSCLC
[52] = system: SW-620 colon
[53] = system: MDA-MB-435
[54] = system: DU-145 prostate
[55] = system: HL-60(TB) leukemia
[56] = system: PC-3 prostate
[57] = system: OVCAR-4 ovarian
[58] = system: RPMI-8226 leukemia

For `CC(C)(Br)C(=O)N1CCN(C(c2ccccc2)c2ccccc2)CC1`, which TGI [1] is on record?
Its TGI is greater than 100 µM.

And the TGI [2]?
The TGI was greater than 100 µM.

And the TGI [3]?
Its TGI is 36.8 µM.

What about the TGI [4] of the same compound?
Its TGI is 55.5 µM.

What about the TGI [5] of the same compound?
Its TGI is greater than 100 µM.

What about the TGI [6] of the same compound?
Its TGI is greater than 100 µM.

What about the TGI [7] of the same compound?
The TGI was greater than 100 µM.

And the TGI [8]?
Its TGI is greater than 100 µM.

What about the TGI [9] of the same compound?
The TGI was greater than 100 µM.

What about the TGI [10] of the same compound?
Its TGI is greater than 100 µM.

What about the TGI [11] of the same compound?
Its TGI is greater than 100 µM.

What about the TGI [12] of the same compound?
The TGI was greater than 100 µM.

And the TGI [13]?
Its TGI is greater than 100 µM.

And the TGI [14]?
The TGI was greater than 100 µM.

What about the TGI [15] of the same compound?
The TGI was greater than 100 µM.

And the TGI [16]?
Its TGI is greater than 100 µM.

And the TGI [17]?
The TGI was greater than 100 µM.

And the TGI [18]?
The TGI was greater than 100 µM.

And the TGI [19]?
The TGI was greater than 100 µM.

What about the TGI [20] of the same compound?
Its TGI is greater than 100 µM.

And the TGI [21]?
The TGI was greater than 100 µM.

And the TGI [22]?
The TGI was greater than 100 µM.

And the TGI [23]?
The TGI was greater than 100 µM.

And the TGI [24]?
The TGI was greater than 100 µM.

And the TGI [25]?
The TGI was greater than 100 µM.

And the TGI [26]?
Its TGI is greater than 100 µM.

What about the TGI [27] of the same compound?
Its TGI is greater than 100 µM.

What about the TGI [28] of the same compound?
The TGI was greater than 100 µM.

What about the TGI [29] of the same compound?
Its TGI is 31.8 µM.

What about the TGI [30] of the same compound?
Its TGI is greater than 100 µM.

What about the TGI [31] of the same compound?
The TGI was greater than 100 µM.

And the TGI [32]?
The TGI was greater than 100 µM.

What about the TGI [33] of the same compound?
Its TGI is greater than 100 µM.

What about the TGI [34] of the same compound?
The TGI was greater than 100 µM.

And the TGI [35]?
The TGI was greater than 100 µM.

What about the TGI [36] of the same compound?
The TGI was greater than 100 µM.

And the TGI [37]?
Its TGI is greater than 100 µM.

What about the TGI [38] of the same compound?
The TGI was greater than 100 µM.

What about the TGI [39] of the same compound?
The TGI was greater than 100 µM.

And the TGI [40]?
The TGI was greater than 100 µM.

And the TGI [41]?
The TGI was greater than 100 µM.

What about the TGI [42] of the same compound?
The TGI was greater than 100 µM.

What about the TGI [43] of the same compound?
Its TGI is greater than 100 µM.

What about the TGI [44] of the same compound?
Its TGI is greater than 100 µM.

What about the TGI [45] of the same compound?
The TGI was 81.8 µM.

What about the TGI [46] of the same compound?
Its TGI is greater than 100 µM.

What about the TGI [47] of the same compound?
The TGI was 81.2 µM.

What about the TGI [48] of the same compound?
The TGI was greater than 100 µM.

What about the TGI [49] of the same compound?
The TGI was greater than 100 µM.

What about the TGI [50] of the same compound?
The TGI was greater than 100 µM.

What about the TGI [51] of the same compound?
The TGI was greater than 100 µM.

What about the TGI [52] of the same compound?
Its TGI is greater than 100 µM.

What about the TGI [53] of the same compound?
The TGI was greater than 100 µM.

What about the TGI [54] of the same compound?
The TGI was greater than 100 µM.

And the TGI [55]?
The TGI was 41.9 µM.

And the TGI [56]?
The TGI was greater than 100 µM.

What about the TGI [57] of the same compound?
The TGI was greater than 100 µM.

For `Cc1ccn2c(=O)cc(CN3CCOCC3)nc2c1`, which TGI [1] is on record?
The TGI was greater than 100 µM.

And the TGI [2]?
The TGI was greater than 100 µM.

What about the TGI [3] of the same compound?
Its TGI is greater than 100 µM.

What about the TGI [4] of the same compound?
Its TGI is greater than 100 µM.

What about the TGI [5] of the same compound?
Its TGI is greater than 100 µM.

What about the TGI [6] of the same compound?
Its TGI is greater than 100 µM.

And the TGI [7]?
Its TGI is greater than 100 µM.

What about the TGI [8] of the same compound?
The TGI was greater than 100 µM.

And the TGI [9]?
Its TGI is greater than 100 µM.

What about the TGI [10] of the same compound?
The TGI was greater than 100 µM.

What about the TGI [58] of the same compound?
Its TGI is greater than 100 µM.

And the TGI [11]?
The TGI was greater than 100 µM.

What about the TGI [12] of the same compound?
The TGI was greater than 100 µM.

What about the TGI [13] of the same compound?
Its TGI is greater than 100 µM.

And the TGI [14]?
The TGI was greater than 100 µM.

What about the TGI [15] of the same compound?
The TGI was greater than 100 µM.

And the TGI [16]?
The TGI was greater than 100 µM.

And the TGI [17]?
The TGI was greater than 100 µM.

And the TGI [18]?
The TGI was greater than 100 µM.

What about the TGI [19] of the same compound?
The TGI was greater than 100 µM.

What about the TGI [20] of the same compound?
The TGI was greater than 100 µM.

And the TGI [21]?
Its TGI is greater than 100 µM.

And the TGI [22]?
Its TGI is greater than 100 µM.

What about the TGI [23] of the same compound?
The TGI was greater than 100 µM.

What about the TGI [24] of the same compound?
Its TGI is greater than 100 µM.

What about the TGI [25] of the same compound?
The TGI was greater than 100 µM.

And the TGI [26]?
The TGI was greater than 100 µM.

What about the TGI [27] of the same compound?
Its TGI is greater than 100 µM.

What about the TGI [28] of the same compound?
The TGI was greater than 100 µM.

And the TGI [29]?
The TGI was greater than 100 µM.

What about the TGI [31] of the same compound?
Its TGI is greater than 100 µM.

What about the TGI [32] of the same compound?
The TGI was greater than 100 µM.

And the TGI [33]?
Its TGI is greater than 100 µM.

What about the TGI [34] of the same compound?
The TGI was greater than 100 µM.

What about the TGI [35] of the same compound?
The TGI was greater than 100 µM.

And the TGI [36]?
Its TGI is greater than 100 µM.

What about the TGI [37] of the same compound?
The TGI was greater than 100 µM.

What about the TGI [39] of the same compound?
Its TGI is greater than 100 µM.

What about the TGI [40] of the same compound?
Its TGI is greater than 100 µM.

And the TGI [41]?
The TGI was greater than 100 µM.

And the TGI [42]?
Its TGI is greater than 100 µM.

What about the TGI [43] of the same compound?
Its TGI is greater than 100 µM.

What about the TGI [44] of the same compound?
Its TGI is greater than 100 µM.

And the TGI [45]?
Its TGI is greater than 100 µM.

And the TGI [46]?
The TGI was greater than 100 µM.

What about the TGI [48] of the same compound?
Its TGI is greater than 100 µM.

And the TGI [49]?
Its TGI is greater than 100 µM.

And the TGI [50]?
Its TGI is greater than 100 µM.

And the TGI [51]?
Its TGI is greater than 100 µM.

And the TGI [52]?
The TGI was greater than 100 µM.

What about the TGI [53] of the same compound?
The TGI was greater than 100 µM.

What about the TGI [54] of the same compound?
Its TGI is greater than 100 µM.

What about the TGI [55] of the same compound?
The TGI was greater than 100 µM.

What about the TGI [56] of the same compound?
The TGI was greater than 100 µM.

What about the TGI [57] of the same compound?
Its TGI is greater than 100 µM.
